Columns and labels:
[1] = test system: NIH3T3 cells; test: mitochondrial mass in NIH3T3 cells treated with TPA; assay type: cell-based, mouse; details: 10 μM TPA+40 μM AICAR, two days
Protocol: NIH3T3 cells were incubated in DMEM medium (DMEM with 10% FCS, 100 units/mL penicillin, 100 μg/mL streptomycin and 2 mM glutamine) in the presence of control DMSO, 10 μM TPA, 1 nM rapamycin, 10 μM TPA+1 nM rapamycin, 40 μM AICAR, or 10 μM TPA+40 μM AICAR at 37° C. in a humidified atmosphere consisting of 95% air and 5% CO2 for two days. Cells were then harvested by trypsin and fixed by 60% ethanol. The cells were stained with MitoTracker Greeen FM in darkness for 30 min prior to FACS analysis. The data represents the average of a triplica-experiment.

[2] = test system: human lymphoblastoid L40; test: mitochondrial mass in human lymphoblastoid L40, MitoTracker Green FM and FACS; assay type: cell-based; details: 2-day treatment; 10 μM LY294002, 2 μM DATS, 1 μM BITC, 1 μM PITC, 2 μg/mL resveratrol, 0.03 μM lycopene, 6.7 μM PEITC, 5 mM silibinin, 1.25 mM selenite, 2.5 mM genistein, 250 μg/mL GSE, 50 μg/mL EGCG, 3 mg/mL bilberry extract, 1 μM AITC, 50 pM rapamycin, 250 μM AICAR
Excerpt: Mitochondrial mass was monitored by staining the 60% Ethanol-fixed cells with MitoTracker Green FM prior to FACS analysis.

[3] = test system: NIH3T3 cells; test: TPA-induced transformation of NIH3T3 cells, colony formation in soft agar; assay type: cell-based, mouse; details: 10 μM TPA + AICAR (40 μM)
Protocol: (A) TPA (10 μM) was incubated with NIH3T3 cells in 0.39% soft agar in the presence of DMSO, 1 nM rapamycin, or 250 nM AICAR, and cultured for 7 days prior to counting colonies under a microscope. (B) The data represents the average of four experiments.
The experiment was done as in Example 19. In brief, 1500 NIH3T3 cells were mixed with 50 μL, of 0.4% agarose in culture medium (basal medium with 10% bovine fetal serum), layered on 96-well plates pre-covered with 50 μL of 0.8% agarose in culture medium. 100 μL of culture medium containing drugs to make final DMSO, 10 μM TPA, 40 μM AICAR, or 10 μM TPA+[…] was then added into the wells. The cells were incubated in a 37° C. incubator with 5% CO2 for more than 7 days. 50 μL of fresh medium was added every 5 days. Colonies were then counted under a microscope.
Transformation of NIH 3T3 cells is a good in vitro tumorigenesis assay, which measures colony formation in soft agar (termed as anchorage-independent growth). The […] TPA (12-O-Tetradecanoylphorbol 13-acetate) is known to stimulate protein kinase C (PKC), activate oncogenes and transform mouse embryonic fibroblast NIH3T3 cells. The TPA-induced anchorage-independent growth of NIH3T3 cell was employed as a tumorigenesis assay. […] Colonies were then counted under a microscope. […]

[4] = test system: senescent WI-38 cells (human primary fibroblast); test: loss of senescent WI-38 cells, β-galactosidase (X-gal) staining; assay type: cell-based; details: 56 days in senescence; 50 pM rapamycin, 250 μM AICAR, 20 μg/mL EGCG, 1.6 μg/mL GSE, 20 μg/mL bilberry extract, 1 μM AITC, 12.5 μM 2-deoxyglucose; 3-day-on/7-day-off (AICAR 2-day-on/8-day-off)
Protocol: AICAR and reduced glucose treatment were incubated with cells in a 2-day-on/8-day-off cycle, while the rest of agents were in a 3-day-on/7-day-off cycle. The treatment started at passage 29. The medium was refreshed every 3 days. After 56-days from passage 31 (senescence), the cells were briefly fixed in 2% formaldehyde/0.2% glutaraldehyde and stained with 1 mg/mL 5-bromo-4-chloro-3-indolyl β-D-galactoside (X-gal) (in buffer containing 40 mM citric acid/sodium phosphate, pH 6.0, 5 mM potassium ferrocyanide, 5 mM potassium ferricyanide, 150 mM NaCl, and 2 mM MgCl2) at 37° C. for 18 hrs for the senescence marker, cellular β-galactosidase activity (blue in color picture and dark grey in black/white picture). Surviving senescent cells were viewed under a microscope.
This invention discloses that CR or rapamycin also prolongs senescence and prevents cell death induced by telomere dysfunction in human cells. Primary human embryonic lung fibroblasts WI-38 were used. […] Cells at passage 29 were treated with 50 pM rapamycin. The treatment was on a 10-day cycle of 3-day with and 7-day without rapamycin (also termed as 3-day-on/7-day-off cycle). […] Due to increased cytosol β-galactosidase activity, senescent cells are stained a blue color (shown as dark grey in black/white picture). […] Rapamycin didn't transform cells since the senescence marker was still present and cell growth was not observed.

[5] = test system: WI-38 cells; test: MPP+ induced ROS in WI-38 cells, dehydrorhodamine 123 and FACS; assay type: cell-based, human; details: 200 μM MPP^+, 3 days
Protocol: MPP+ with various concentrations of rapamycin was incubated with WI-38 cells for 3 days. Cells were stained with dehydrorhodamine 123 in the dark for 30 min prior to FACS analysis.
MPP^+, an inhibitor of complex I (NADH CoQ1 reductase) in the mitochondrial respiratory chain, is a dopaminergic neurotoxin. It is commonly used to induce Parkinson's disease in […]. Human primary fibroblast WI-38 cells were treated with 200 μM MPP^+ for 3 days. Cells were then stained with dehydrorhodamine 123 in the dark for 30 min. Cells were then analyzed by FACS.

NC(=O)c1ncn([C@@H]2O[C@H](CO)[C@@H](O)[C@H]2O)c1N [AICAR, 5-aminoimidazole-4-carboxamide-1-beta-D-ribofuranoside, reference compound]
mitochondrial mass decrease induced by TPA [1]: reverses the decrease in mitochondrial mass | mitochondrial mass [2]: increased | anchorage-independent growth of NIH3T3 cells induced by TPA [3]: inhibits the anchorage-independent growth | loss of the senescent WI-38 cells [4]: prevented

C[n+]1ccc(-c2ccccc2)cc1 [MPP^+]
ROS level in WI-38 cells [5]: greatly increased ROS level

— patent publication US9360471B2, “Anti-aging agents and methods to identify them” (priority 2009, dated 2016)
